The test system of one data set is B16-F10. Nature of the data set: Antimigratory activity against mouse B16-F10 cells assessed as inhibition on cell migration.
A short description of data set [1]: Anti-angiogenic activity in human endothelial cells assessed as reduction in cell growth incubated for 11 days by PECAM-1 staining based image analysis. As to conditions: 264 h.
A short description of data set [2]: Half life in mouse. The format is ADME, organism-based. As to conditions: in vivo.
A further data set relates to HeLa. Briefly: Cytotoxicity against human HeLa cells assessed as growth inhibition. The format is functional, cell-based.
Another data set has as its target T1, P-selectin (Mus musculus, UniProt Q01102).
T1 sequence (Q01102 whole entry): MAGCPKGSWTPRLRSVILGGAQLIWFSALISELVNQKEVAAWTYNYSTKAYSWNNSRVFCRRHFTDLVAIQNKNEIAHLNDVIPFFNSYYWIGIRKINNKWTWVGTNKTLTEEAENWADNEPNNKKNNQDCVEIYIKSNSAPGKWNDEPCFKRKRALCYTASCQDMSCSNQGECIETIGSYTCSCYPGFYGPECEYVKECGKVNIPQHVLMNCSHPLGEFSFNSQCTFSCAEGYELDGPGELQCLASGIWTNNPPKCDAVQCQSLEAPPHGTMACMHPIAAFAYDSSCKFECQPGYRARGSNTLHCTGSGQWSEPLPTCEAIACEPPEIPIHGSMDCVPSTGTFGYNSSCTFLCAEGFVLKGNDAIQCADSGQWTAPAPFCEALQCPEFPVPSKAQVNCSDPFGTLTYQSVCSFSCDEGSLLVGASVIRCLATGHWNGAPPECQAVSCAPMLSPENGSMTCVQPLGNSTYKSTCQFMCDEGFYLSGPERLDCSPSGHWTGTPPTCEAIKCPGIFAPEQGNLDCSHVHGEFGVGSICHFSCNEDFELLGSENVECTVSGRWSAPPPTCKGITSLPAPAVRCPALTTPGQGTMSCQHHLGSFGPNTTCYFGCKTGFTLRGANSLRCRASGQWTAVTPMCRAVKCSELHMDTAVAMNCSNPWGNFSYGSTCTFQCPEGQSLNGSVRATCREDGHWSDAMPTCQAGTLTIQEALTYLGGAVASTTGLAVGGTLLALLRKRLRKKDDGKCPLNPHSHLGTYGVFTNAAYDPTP
Nature of the data set: Inhibition of mouse P-selectin assessed as inhibition of adhesion to human LS180 cells to immobilized P-selectin incubated for 1 hrs by ELISA. Type of data set: cell-based. A general note: An ELISA detects its analyte on a solid surface through an enzyme-linked reagent.

Data set [3] has as its target T2, Heparanase (Homo sapiens) (UniProt Q9Y251).
T2 sequence (whole entry): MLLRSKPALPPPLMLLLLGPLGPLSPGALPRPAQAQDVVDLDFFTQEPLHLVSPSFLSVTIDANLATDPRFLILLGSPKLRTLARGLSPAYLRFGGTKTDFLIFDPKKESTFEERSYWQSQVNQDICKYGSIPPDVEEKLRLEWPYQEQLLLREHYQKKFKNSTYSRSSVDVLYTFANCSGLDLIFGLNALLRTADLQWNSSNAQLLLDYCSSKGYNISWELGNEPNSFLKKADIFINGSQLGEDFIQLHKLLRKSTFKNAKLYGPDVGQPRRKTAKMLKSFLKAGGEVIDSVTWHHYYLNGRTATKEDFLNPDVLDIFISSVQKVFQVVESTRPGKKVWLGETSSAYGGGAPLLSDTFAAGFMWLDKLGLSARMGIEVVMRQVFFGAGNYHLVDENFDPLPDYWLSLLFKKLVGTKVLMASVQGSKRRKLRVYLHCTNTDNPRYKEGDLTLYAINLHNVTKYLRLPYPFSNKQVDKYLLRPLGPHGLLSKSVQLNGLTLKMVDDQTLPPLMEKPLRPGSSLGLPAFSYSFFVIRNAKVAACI
Nature of the data set: Inhibition of recombinant human heparanase at 5 ug/ml incubated for 4 hrs by beta-scintillation counter analysis relative to control. Conditions: dose 5.0 µg/ml.

pIC50: −log10 of the molar value.

One may read the pIC50 as the IC50 on a negative log10 scale, so that one unit is a factor of ten. In general, half-life refers to how long it takes for the measured level to halve. A higher half-life goes with slow decline. A word on the inhibition: it is the share of the control response that was lost under treatment.

As for `CCCCCCCCCCCCCCCc1c(O[C@H]2O[C@H](C(=O)O)[C@@H](O)[C@H](O)[C@H]2O)ccc(O)c1C(=O)Oc1cc(C)c(C(=O)O)c(O)c1`, the pIC50 with B16-F10 was 4.82. Take `O=C(O)Cc1ccc2oc(-c3ccc(/C=C/C(=O)Nc4ccc(Cl)cc4Cl)cc3F)nc2c1`: the pIC50 in data set [1] was 5.70.

With `O=C(O)Cc1nc(-c2ccc(-c3ccc(NC(=O)/C=C/c4ccc(Br)cc4)cc3Cl)o2)cs1`, the half-life in data set [2] was 30 min. In data set [1], the pIC50 is 6.00. Turning to `CCCCCCCCCCCCCCCc1c(O[C@H]2O[C@H](C(=O)OC)[C@@H](O)[C@H](O)[C@H]2O)ccc(O)c1C(=O)Oc1cc(C)c(C(=O)O)c(O)c1`, the pIC50 in the data set with B16-F10 was 4.52. Consider `COc1ccc(C2CNC(c3ccccc3F)OC23CCCCC3)cc1` (configuration not stated), for which, in the data set on HeLa, the pIC50 is 4.32. With `COc1ccc(N2C(=O)c3ccc(C(=O)O)cc3C2=O)cc1-c1nc2cc(-c3ccc4c(c3)OCO4)ccc2o1`, the negative-log IC50 (pIC50) in data set [1] is 5.52. Take `CCCNc1ccc(N2C(=O)c3ccc(C(=O)O)cc3C2=O)cc1-c1nc2cc(-c3ccc(Br)cc3)ccc2o1`: the negative-log IC50 (pIC50) in data set [1] was 6.60. For `O=S(=O)(O)OC[C@@H]1O[C@@H](O[C@@H]2[C@@H](OS(=O)(=O)O)[C@H](OS(=O)(=O)O)C(C3O[C@H](COS(=O)(=O)O)[C@@H](O[C@H]4O[C@H](COS(=O)(=O)O)[C@@H](O[C@H]5O[C@H](COS(=O)(=O)O)[C@@H](OS(=O)(=O)O)[C@H](OS(=O)(=O)O)[C@H]5OS(=O)(=O)O)[C@H](OS(=O)(=O)O)[C@H]4OS(=O)(=O)O)[C@H](OS(=O)(=O)O)[C@H]3OS(=O)(=O)O)O[C@H]2COS(=O)(=O)O)[C@@H](OS(=O)(=O)O)[C@H](OS(=O)(=O)O)[C@H]1O[C@@H]1O[C@@H](COS(=O)(=O)O)[C@H](OS(=O)(=O)O)[C@@H](OS(=O)(=O)O)[C@@H]1OS(=O)(=O)O` (stereo in doubt; form 1) [listing 1 of 2 here], the negative logarithm of the IC50 (pIC50) at P-selectin is 4.23. As to `O=C(O)c1ccc2c(c1)C(=O)N(c1cccc(-c3nc4ccccc4o3)c1)C2=O`, the pIC50 in data set [1] was 4.40.

With `O=S(=O)(O)OC[C@@H]1O[C@@H](O[C@@H]2[C@@H](OS(=O)(=O)O)[C@H](OS(=O)(=O)O)C(C3O[C@H](COS(=O)(=O)O)[C@@H](O[C@H]4O[C@H](COS(=O)(=O)O)[C@@H](O[C@H]5O[C@H](COS(=O)(=O)O)[C@@H](OS(=O)(=O)O)[C@H](OS(=O)(=O)O)[C@H]5OS(=O)(=O)O)[C@H](OS(=O)(=O)O)[C@H]4OS(=O)(=O)O)[C@H](OS(=O)(=O)O)[C@H]3OS(=O)(=O)O)O[C@H]2COS(=O)(=O)O)[C@@H](OS(=O)(=O)O)[C@H](OS(=O)(=O)O)[C@H]1O[C@@H]1O[C@@H](COS(=O)(=O)O)[C@H](OS(=O)(=O)O)[C@@H](OS(=O)(=O)O)[C@@H]1OS(=O)(=O)O` (stereo in doubt; form 1) [listing 2 of 2 here], the inhibition in data set [3] is 85%. `O=S(=O)(O)OC[C@@H]1O[C@@H](O[C@@H]2[C@@H](OS(=O)(=O)O)[C@H](OS(=O)(=O)O)C(C3O[C@H](COS(=O)(=O)O)[C@@H](O[C@H]4O[C@H](COS(=O)(=O)O)[C@@H](O[C@H]5O[C@H](COS(=O)(=O)O)[C@@H](OS(=O)(=O)O)[C@H](OS(=O)(=O)O)[C@H]5OS(=O)(=O)O)[C@H](OS(=O)(=O)O)[C@H]4OS(=O)(=O)O)[C@H](OS(=O)(=O)O)[C@H]3OS(=O)(=O)O)O[C@H]2COS(=O)(=O)O)[C@@H](OS(=O)(=O)O)[C@H](OS(=O)(=O)O)[C@H]1O[C@@H]1O[C@@H](COS(=O)(=O)O)[C@H](OS(=O)(=O)O)[C@@H](OS(=O)(=O)O)[C@@H]1OS(=O)(=O)O` (stereo in doubt; form 2): the inhibition in data set [3] is 58%.

(Values after ChEMBL document CHEMBL5257028, “Recent advances in the discovery of heparanase inhibitors as anti-cancer agents” (Eur J Med Chem, 2016).)
